Three molecules from patent US9452985B2, “Tau imaging probe” (GE Healthcare Limited, priority 2010, dated 2016) can be followed below.

In general, pKd refers to −log10 of the Kd, conventionally taken in molar units.

pKd: −log10 of the molar value.

Data set [1] deals with neurofibrillary tangles (tau protein). Description: Autoradiography test with [^18F] BF-227 and [^18F] THK-5035 on brain section of Alzheimer's disease patients. In kind it is binding, human. The conditions noted are these: approximately 400 μCi/ml, 10 minutes. The method, then: After the paraffin-embedded brain section of Alzheimer's disease patients was deparaffinized, it was immersed in PBS for 10 minutes. Approximately 400 μCi/ml of [^18F] BF-227 and [^18F] THK-5035 were dropped on the section to react for 10 minutes at room temperature. It was immersed in distilled water for 2 minutes, shaken in 50% EtOH lightly for 2 minutes, immersed again in distilled water for 2 minutes, and dried in a paraffin extension device. The section was contacted on an imaging plate and settled overnight, and the next day, the images were read with a BAS5000 (Fujifilm Corporation). Furthermore, the serial section was immunostained with thioflavine-S staining and anti-tau antibody (AT8).

In another data set the target is K18-ΔK280 aggregates (Homo sapiens (Human), UniProt P10636, DEL597-597). Briefly: Saturation binding test of THK-5105. The conditions noted are these: [^18F] THK-5105 0.1 to 100 nM, K18-ΔK280 aggregates 200 nM, room temperature, one hour; read-out: dissociation constant Kd. As to the method:
Regarding the binding of tau imaging probes to tau protein aggregates, a binding test was carried out and evaluated using a K18-ΔK280 construct which contained a 4-repeat structure involved in the formation of beta-sheet structures in the htau40 protein. For K18-ΔK280 (Martin von Bergen et al., THE JOURNAL OF BIOLOGICAL CHEMISTRY (2001), vol. 276, pp. 48165-48174; M. Goedert et al., NEURON (1989), vol. 3, pp. 519-526), an artificial gene fragment which was prepared based on its amino acid sequence was cloned into a pET-3a vector, the resulting plasmid was used to transform Escherichia coli BL21 (DE3) competent cells for protein expression, and the recombinant Escherichia coli cell was cultured to express K18-ΔK280. […]
K18-ΔK280 aggregates were made by preparing 20 μM PBS (pH 7.4) and incubating the K18-ΔK280 in the PBS at 37° C. for 4 days. The state where beta-sheet structures in K18-ΔK280 aggregates were formed was ascertained by thioflavin S fluorescence binding test. […]
In the binding test of [^18F] […] THK-5105 to K18-ΔK280 aggregates was calculated from the radioactivity of the filter which was measured on a gamma counter (AccuFLEX γ7000, Aloka). Non-specific binding was determined by adding unlabeled THK-5105 (at a final concentration of 2 μM) to the reaction system and performing experiments in a similar way.

The next data set relates to neurofibrillary tangles. Briefly: Staining test on brain section of Alzheimer's disease patients. The conditions noted are these: 100 μM solution in 50% ethanol, 10 minutes, fluorescence microscope. In kind it is binding, human. The text has this: The procedure of staining test on the compounds of the present invention on the brain section of Alzheimer's disease patients is described below:
(1) We used the brain specimens of the temporal lobe or hippocampus from patients who were definitely diagnosed as having Alzheimer's disease pathology. The specimens were obtained from Choju Medical Institute, Fukushimura Hospital, our collaborating research institute, and the consent for use for research purposes was obtained from the patients' bereaved family (Fukushimura Hospital, Ethics Committee Approval No. 20).
(2) The paraffin-embedded brain tissue was sliced to 6 or 8 μm thickness, extended on a slide glass, and dried. The paraffinized brain section was deparaffinized by washing with xylene for 10 minutes×2, 100% ethanol for 5 minutes×2, 90% ethanol for 5 minutes, and running water for 10 minutes in this order.
(3) As a pretreatment for staining with the compounds of the present invention, the treatment to remove autofluorescence with lipofuscin was performed. First, the paraffinized brain section was immersed in 0.25% KMnO4 solution for 20 minutes. It was washed with PBS for 2 minutes twice, immersed in a 0.1% K2S2O5/oxalic acid solution for approximately 5 minutes, and further washed with PBS for 2 minutes 3 times.
(4) From 100 μM solution of the compounds of the present invention dissolved in 50% ethanol, approximately 150 μl was dropped on the section to react for 10 minutes. After being immersed in tap water 5 times, it was mounted with Flour Save Reagent (Calbiochem) and examined with a fluorescence microscope (Nikon, ECLIPSE 80i). The images were taken with a digital camera (Nikon, Dxin1200F or Photometrics, Cool SNAP ES).

Data set [2] has as its system neurofibrillary tangles (tau protein). Briefly: Autoradiography experiments using [^18F] THK-5105, [^18F] THK-5117 and [^18F] THK-5125. In kind it is binding, human. The method, then: Paraffin-embedded sections of the brain from an Alzheimer's disease patient were deparaffinized, and then immersed in PBS for 10 minutes. Approximately 400 μCi/ml of each of [^18F] THK-5105, [^18F] THK-5117, and [^18F] THK-5125 was added dropwise to deparaffinized sections and allowed to react for 10 minutes at room temperature. After that, the sections were immersed in distilled water for 2 minutes, shaken lightly in 50% EtOH for 2 minutes, immersed again in distilled water for 2 minutes, and dried in a paraffin stretching device. The section was left overnight in contact with an imaging plate. Next day, the image was read with a BAS 5000 (Fujifilm Corporation). In addition, adjacent sections were immunostained with anti-phosphorylated tau antibody (AT8).

Data set [3] in a line: Evaluation of brain delivery of [^18F] THK-5105, [^18F] THK-5117 and [^18F] THK-5125 in mice. In kind it is in vivo, male ICR mice. The conditions noted are these: tail vein.
Assay in data set [4]: as above
In kind it is in vivo, male ICR mice. As to the method: A physiological saline solution containing [^18F] THK-5105, [^18F] THK-5117, or [^18F] THK-5125 was administered into the tail vein of male ICR mice (6 to 7 weeks old), and brain delivery of these label compounds was assessed from the accumulation of radioactivity in brain and plasma tissues at two minutes post-injection.
As an index in the evaluation of radioactive accumulation, use was made of the percentage of radioactivity per unit weight of brain relative to the total radioactivity administered (% Injected Dose/g of tissue; % ID/g). For measurement of radioactivity, a gamma counter (1480 WIZARD, Perkin Elmer) was used. Experimental procedures were as follows. A label compound was administered into the tail vein of mice. Two minutes later, each mouse was subjected to cervical dislocation under ether anesthesia, and the whole brain, including the cerebellum and brain stem, was isolated immediately. The radioactivity and tissue weight of the sample were measured, and their data were used to calculate a % ID/g values for the labeled compound.

Chain of K18-ΔK280 aggregates (P10636 other isoform, or with tags, fused parts or gaps del 597-597): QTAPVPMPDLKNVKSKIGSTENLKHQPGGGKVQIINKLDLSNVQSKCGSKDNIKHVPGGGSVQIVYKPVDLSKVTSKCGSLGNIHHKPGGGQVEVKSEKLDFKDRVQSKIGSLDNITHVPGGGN

Regarding `CN(C)c1ncc(C=Cc2nc3ccc(OCCF)cc3o2)s1` [[^18F] BF-227], in data set [1], the “accumulation in the region where [^18F] THK-5035 was accumulated (anti-tau antibody positive region), autoradiography” value is on record as “no accumulation”.
Consider `CN(C)c1ccc(-c2ccc3cc(OCC(O)CF)ccc3n2)cc1` (stereo not shown) [THK-5105, 6-[(3-fluoro-2-hydroxy)propoxy]-2-(4-dimethylaminophenyl)quinoline], for which, at K18-ΔK280 aggregates, the negative-log Kd (pKd) is 8.41. In addition, in the data set with neurofibrillary tangles, the “binding to neurofibrillary tangles in the brain section of Alzheimer's disease patients (staining test)” value is “bind to neurofibrillary tangles specifically and selectively”. Besides, the “correspondence of autoradiography / unlabeled staining image with anti-phosphorylated tau antibody (AT8) immunostaining” value in data set [2] (hippocampus section and adjacent sections, higher magnification images) is given as “corresponded well with the image of immunostaining with the anti-phosphorylated tau antibody”.
For `CNc1ccc(-c2ccc3cc(OCC(O)C[18F])ccc3n2)cc1` (stereo not shown) [[^18F] THK-5117], the “% ID/g 60 minutes post-administration” value in data set [3] was 0.26 % ID/g. For the same molecule, in data set [2] (Alzheimer's disease patient brain sections), the “affinity to neurofibrillary tangles (tau protein), autoradiography” value is “high affinity to neurofibrillary tangles (tau protein)”. Further, the “accumulation in autoradiography of sections of the lateral temporal cortex and of the medial temporal cortex” value in data set [2] (approximately 400 μCi/ml, 10 minutes, Alzheimer's disease patient brain sections) was “accumulated in the lateral temporal cortex and medial temporal cortex”. Further, the “delivery to and washout from the brain” value in data set [4] (mice, compared with [^18F] BAY94-9172, [^18F] AV-45 and [^18F] FDDNP) is “superior in being delivered to and washed out from the brain”. The “% ID/g 2 minutes post-administration” value in data set [4] (mice, tail vein, brain, 2 minutes post-administration) is given as 6.06 % ID/g. The “2 minutes post-administration/60 minutes post-administration” value in data set [4] (quotient of brain % ID/g values) is recorded as 23.3.
